Test results published in PMC8213057, “Targeting ALK2: An Open Science Approach to Developing Therapeutics for the Treatment of Diffuse Intrinsic Pontine Glioma” (Journal of Medicinal Chemistry, 2020).

Legend:
[1] = target: T1, NEK8 (Homo sapiens, UniProt Q86SG6); conditions: 1 μM; Run 1, Run 2
T1 sequence (Q86SG6 1-692): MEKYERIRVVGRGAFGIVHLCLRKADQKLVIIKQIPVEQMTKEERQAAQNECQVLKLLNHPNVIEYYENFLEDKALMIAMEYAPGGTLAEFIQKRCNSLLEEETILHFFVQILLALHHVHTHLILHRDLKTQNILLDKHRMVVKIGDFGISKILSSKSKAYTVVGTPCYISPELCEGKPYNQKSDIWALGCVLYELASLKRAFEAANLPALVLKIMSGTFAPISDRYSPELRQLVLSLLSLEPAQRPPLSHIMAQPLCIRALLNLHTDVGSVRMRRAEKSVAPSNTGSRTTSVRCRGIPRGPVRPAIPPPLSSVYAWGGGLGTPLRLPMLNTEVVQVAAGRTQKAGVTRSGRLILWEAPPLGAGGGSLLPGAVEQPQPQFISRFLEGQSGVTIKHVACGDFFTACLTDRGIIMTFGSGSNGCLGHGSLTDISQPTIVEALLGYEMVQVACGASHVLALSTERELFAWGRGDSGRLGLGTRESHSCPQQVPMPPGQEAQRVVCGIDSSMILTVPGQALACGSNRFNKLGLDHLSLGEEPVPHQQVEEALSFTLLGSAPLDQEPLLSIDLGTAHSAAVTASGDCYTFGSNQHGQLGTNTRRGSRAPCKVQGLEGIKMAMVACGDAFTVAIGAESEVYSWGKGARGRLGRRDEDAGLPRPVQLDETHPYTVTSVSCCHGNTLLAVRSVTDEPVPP

[2] = target: MARK1 (Homo sapiens, UniProt Q9P0L2); experiment: biochemical; conditions: read-out: % enzyme activity, 1 μM; Run 1, Run 2
MARK1, sequence (Q9P0L2 whole entry): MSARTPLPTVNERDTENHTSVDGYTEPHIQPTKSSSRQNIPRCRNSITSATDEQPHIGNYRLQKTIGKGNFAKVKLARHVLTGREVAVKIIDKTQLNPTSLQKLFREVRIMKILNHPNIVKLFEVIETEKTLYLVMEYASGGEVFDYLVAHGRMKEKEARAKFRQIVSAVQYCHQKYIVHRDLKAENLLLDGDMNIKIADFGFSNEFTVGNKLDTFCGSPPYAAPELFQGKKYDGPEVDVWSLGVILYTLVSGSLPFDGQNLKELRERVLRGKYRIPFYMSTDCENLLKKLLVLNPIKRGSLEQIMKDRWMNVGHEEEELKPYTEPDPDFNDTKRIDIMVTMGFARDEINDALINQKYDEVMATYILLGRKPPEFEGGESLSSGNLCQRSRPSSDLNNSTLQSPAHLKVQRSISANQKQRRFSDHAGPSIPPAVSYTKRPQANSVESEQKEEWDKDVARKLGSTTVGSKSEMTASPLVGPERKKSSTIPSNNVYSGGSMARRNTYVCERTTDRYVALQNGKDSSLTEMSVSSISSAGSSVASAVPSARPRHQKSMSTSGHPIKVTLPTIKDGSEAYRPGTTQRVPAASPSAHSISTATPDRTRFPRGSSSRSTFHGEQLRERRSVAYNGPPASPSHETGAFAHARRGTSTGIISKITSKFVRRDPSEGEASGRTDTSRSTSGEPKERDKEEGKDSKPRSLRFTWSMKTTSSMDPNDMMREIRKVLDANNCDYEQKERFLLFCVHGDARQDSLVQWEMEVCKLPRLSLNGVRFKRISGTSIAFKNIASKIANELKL

[3] = target: EPHA4 (Homo sapiens, UniProt P54764); experiment: biochemical; conditions: read-out: % enzyme activity, 1 μM; Run 1, Run 2
EPHA4, sequence (P54764 20-986): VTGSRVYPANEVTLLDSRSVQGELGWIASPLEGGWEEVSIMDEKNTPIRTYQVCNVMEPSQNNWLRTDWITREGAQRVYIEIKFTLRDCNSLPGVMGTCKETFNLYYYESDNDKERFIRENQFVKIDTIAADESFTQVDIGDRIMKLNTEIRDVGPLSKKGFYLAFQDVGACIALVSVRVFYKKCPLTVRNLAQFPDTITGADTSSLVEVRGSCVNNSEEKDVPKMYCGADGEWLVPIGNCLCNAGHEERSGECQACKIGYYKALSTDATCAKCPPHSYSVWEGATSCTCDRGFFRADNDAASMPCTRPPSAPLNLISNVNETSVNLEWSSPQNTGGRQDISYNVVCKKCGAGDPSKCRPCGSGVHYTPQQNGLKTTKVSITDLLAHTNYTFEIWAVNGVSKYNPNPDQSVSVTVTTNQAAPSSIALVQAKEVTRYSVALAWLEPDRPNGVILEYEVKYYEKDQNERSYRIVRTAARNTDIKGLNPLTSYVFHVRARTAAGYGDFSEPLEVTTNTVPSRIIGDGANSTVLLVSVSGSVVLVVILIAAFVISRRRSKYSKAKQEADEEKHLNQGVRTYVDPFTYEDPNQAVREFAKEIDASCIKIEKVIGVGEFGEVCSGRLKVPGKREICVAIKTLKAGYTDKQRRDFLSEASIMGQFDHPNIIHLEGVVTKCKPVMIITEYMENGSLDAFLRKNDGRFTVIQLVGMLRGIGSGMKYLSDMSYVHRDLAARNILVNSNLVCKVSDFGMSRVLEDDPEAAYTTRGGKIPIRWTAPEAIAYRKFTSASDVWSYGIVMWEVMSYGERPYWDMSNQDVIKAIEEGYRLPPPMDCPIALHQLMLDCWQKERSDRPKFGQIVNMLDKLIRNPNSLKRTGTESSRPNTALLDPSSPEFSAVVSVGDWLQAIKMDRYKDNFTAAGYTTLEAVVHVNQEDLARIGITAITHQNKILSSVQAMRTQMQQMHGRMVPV

[4] = target: CK1a1 (Homo sapiens, UniProt P48729); conditions: 1 μM; Run 1, Run 2
CK1a1, sequence (P48729 whole entry): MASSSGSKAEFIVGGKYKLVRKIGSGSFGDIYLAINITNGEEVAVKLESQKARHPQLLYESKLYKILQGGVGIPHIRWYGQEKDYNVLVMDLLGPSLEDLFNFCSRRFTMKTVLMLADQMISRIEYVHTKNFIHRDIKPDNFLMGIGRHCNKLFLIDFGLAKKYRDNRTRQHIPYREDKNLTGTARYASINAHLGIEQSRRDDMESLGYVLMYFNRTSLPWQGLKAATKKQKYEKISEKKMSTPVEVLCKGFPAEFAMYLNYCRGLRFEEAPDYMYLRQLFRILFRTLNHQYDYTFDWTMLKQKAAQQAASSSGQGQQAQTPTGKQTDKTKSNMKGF

[5] = target: T2, MINK/MINK1 (Homo sapiens, UniProt Q8N4C8); experiment: 375-member kinase panel; assay type: biochemical; conditions: Run 1, Run 2; for % enzyme activity: 1 μM; for remaining activity at 1 µM: read-out: % enzyme activity, 1 μM
T2 construct: purchased Reaction Biology Corporation
T2 sequence (Q8N4C8 whole entry): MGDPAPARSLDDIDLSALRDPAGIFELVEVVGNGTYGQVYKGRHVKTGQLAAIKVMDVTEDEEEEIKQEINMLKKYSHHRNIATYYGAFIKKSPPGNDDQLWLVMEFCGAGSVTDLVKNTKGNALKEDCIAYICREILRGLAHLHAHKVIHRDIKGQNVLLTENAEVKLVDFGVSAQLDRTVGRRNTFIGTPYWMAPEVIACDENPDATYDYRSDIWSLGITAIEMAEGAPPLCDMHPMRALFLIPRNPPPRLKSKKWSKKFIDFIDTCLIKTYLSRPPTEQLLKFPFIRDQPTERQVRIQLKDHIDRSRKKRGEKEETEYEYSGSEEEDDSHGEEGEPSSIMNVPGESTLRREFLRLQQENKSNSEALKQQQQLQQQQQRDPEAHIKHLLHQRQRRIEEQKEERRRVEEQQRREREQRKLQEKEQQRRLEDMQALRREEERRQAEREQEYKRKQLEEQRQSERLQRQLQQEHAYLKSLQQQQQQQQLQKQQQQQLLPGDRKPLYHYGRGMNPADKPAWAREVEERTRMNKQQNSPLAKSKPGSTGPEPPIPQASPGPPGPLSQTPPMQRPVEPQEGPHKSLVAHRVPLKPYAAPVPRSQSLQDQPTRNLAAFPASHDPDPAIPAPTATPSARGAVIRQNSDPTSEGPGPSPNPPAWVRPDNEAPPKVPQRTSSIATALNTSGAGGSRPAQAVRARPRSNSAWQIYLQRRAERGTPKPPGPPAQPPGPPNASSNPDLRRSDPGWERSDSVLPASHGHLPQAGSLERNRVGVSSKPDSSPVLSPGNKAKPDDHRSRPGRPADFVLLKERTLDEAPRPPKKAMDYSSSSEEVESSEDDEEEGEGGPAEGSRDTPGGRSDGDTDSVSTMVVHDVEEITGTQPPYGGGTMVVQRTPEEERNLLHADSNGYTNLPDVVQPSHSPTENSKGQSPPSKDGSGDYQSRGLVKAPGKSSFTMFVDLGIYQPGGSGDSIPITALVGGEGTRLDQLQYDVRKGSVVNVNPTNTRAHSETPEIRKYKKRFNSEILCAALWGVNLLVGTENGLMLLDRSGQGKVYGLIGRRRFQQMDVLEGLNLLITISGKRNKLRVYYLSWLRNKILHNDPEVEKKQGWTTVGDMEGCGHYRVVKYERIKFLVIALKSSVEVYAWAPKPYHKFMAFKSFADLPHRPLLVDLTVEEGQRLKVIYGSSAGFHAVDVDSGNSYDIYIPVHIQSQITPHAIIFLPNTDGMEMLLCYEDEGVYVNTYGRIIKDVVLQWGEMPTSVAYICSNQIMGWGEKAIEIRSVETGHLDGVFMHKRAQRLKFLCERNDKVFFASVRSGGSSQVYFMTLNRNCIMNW

[6] = target: T3, PKCmu/PRKD1 (Homo sapiens, UniProt Q15139); conditions: 1 μM; Run 1, Run 2
T3 sequence (Q15139 1-912): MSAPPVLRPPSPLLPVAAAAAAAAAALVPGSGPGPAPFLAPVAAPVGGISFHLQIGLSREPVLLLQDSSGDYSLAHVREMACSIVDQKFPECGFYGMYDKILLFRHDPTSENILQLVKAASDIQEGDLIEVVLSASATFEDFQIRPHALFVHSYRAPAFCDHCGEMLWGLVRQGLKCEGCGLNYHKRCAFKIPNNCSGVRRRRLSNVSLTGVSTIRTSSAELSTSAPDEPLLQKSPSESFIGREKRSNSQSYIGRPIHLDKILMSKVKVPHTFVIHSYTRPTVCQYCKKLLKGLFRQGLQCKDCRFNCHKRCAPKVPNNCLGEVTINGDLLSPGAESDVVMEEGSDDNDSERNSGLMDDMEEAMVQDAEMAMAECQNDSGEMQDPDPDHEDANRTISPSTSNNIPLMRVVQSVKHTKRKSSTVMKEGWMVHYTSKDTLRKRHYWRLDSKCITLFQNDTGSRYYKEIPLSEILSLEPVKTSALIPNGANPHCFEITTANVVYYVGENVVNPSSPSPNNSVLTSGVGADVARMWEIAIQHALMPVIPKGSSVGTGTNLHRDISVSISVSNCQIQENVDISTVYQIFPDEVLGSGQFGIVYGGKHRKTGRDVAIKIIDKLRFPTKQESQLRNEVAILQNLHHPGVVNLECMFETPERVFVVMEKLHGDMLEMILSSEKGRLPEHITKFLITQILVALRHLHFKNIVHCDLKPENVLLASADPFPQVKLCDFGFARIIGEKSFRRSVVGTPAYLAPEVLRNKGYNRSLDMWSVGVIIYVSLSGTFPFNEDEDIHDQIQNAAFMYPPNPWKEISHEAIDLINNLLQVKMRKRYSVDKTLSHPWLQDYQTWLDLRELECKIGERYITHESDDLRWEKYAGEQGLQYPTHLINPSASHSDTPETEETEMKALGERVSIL

[7] = target: T4, MUSK (Homo sapiens, UniProt O15146); experiment: biochemical; conditions: read-out: % enzyme activity, 1 μM; Run 1, Run 2
T4 sequence (O15146 24-869): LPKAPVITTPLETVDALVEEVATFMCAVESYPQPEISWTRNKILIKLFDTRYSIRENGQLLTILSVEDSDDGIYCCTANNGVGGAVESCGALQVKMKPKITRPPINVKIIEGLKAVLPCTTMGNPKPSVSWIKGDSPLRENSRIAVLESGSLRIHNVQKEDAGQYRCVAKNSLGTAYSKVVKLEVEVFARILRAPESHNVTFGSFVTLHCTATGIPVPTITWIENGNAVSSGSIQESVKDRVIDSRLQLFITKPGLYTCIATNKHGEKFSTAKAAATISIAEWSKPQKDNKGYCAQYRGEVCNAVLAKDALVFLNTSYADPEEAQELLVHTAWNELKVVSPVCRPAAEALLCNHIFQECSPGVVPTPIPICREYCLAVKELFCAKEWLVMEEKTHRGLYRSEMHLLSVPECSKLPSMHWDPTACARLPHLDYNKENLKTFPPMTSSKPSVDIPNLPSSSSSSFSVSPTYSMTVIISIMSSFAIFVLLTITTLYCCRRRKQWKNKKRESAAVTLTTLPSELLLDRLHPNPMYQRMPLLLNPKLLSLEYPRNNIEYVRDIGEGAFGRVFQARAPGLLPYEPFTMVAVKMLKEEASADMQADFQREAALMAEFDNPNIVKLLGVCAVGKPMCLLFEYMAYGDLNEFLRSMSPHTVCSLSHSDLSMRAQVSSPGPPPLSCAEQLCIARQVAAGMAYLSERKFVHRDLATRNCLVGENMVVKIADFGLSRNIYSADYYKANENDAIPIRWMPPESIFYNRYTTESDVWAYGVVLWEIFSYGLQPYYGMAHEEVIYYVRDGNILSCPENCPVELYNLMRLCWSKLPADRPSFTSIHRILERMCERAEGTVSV

[8] = target: CAMK1b (Homo sapiens, UniProt Q6P2M8); conditions: 1 μM; Run 1, Run 2
CAMK1b, sequence (Q6P2M8 whole entry): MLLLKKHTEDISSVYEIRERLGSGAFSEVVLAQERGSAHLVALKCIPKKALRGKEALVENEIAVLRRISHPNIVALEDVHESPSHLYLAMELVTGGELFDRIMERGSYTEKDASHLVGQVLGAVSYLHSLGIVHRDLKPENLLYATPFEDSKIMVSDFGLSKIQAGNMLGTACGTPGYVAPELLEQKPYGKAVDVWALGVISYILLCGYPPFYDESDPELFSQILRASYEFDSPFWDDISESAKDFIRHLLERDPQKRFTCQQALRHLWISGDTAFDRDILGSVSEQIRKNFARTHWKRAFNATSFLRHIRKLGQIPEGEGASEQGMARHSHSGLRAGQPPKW

| SMILES | % enzyme activity [1] [%] | remaining activity at 1 µM [2] [%] | remaining activity at 1 µM [3] [%] | % enzyme activity [4] [%] | % enzyme activity [5] [%] | remaining activity at 1 µM [5] [%] | % enzyme activity [6] [%] | remaining activity at 1 µM [7] [%] | % enzyme activity [8] [%] |
| --- | --- | --- | --- | --- | --- | --- | --- | --- | --- |
| COc1cc(-c2cncc(-c3ccc(N4CCN(C)CC4)cc3)c2C)cc(F)c1C(N)=O [Compound 26a, 2-Fluoro-6-methoxy-4-(4-methyl-5-(4-(4-methylpiperazin-1-yl)phenyl)pyridin-3-yl)benzamide] | 98.06 | 88 | 95.3 | 91.31 | 22.65 | 24.1 | 88.26 | 92.8 | 95.63 |
| COc1cc(-c2cncc(-c3ccc(N4C[C@@H](C)N(C)[C@@H](C)C4)cc3)c2C)cc(F)c1C(N)=O [Compound 26c, 2-Fluoro-6-methoxy-4-(4-methyl-5-(4-((3R,5S)-3,4,5-trimethylpiperazin-1-yl)phenyl)pyridin-3-yl)benzamide] | 106.54 | 94.1 | 99.3 | 99.44 | 29.65 | 30.2 | 95.09 | 92.2 | 99.02 |
